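Each compound was tested at five concentrations against cells in 96-well plates for 48 hours. GI50 is the concentration that inhibits growth by half. TGI denotes the concentration required for complete inhibition of growth.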
Assays:
Experiment in all cases: inhibition of tumour cell growth, NCI panel, 48 h
NCI-H460 lung = test system: NCI-H460 lung
U251 CNS = test system: U251 CNS
SR leukemia = test system: SR leukemia
K-562 leukemia = test system: K-562 leukemia
UACC-62 melanoma = test system: UACC-62 melanoma
UACC-257 melanoma = test system: UACC-257 melanoma
TK-10 renal = test system: TK-10 renal
SNB-19 CNS = test system: SNB-19 CNS
COLO 205 colon = test system: COLO 205 colon
SK-MEL-2 melanoma = test system: SK-MEL-2 melanoma

SMILES	GI50 (NCI-H460 lung) [µM]	TGI (NCI-H460 lung) [µM]	GI50 (U251 CNS) [µM]	TGI (U251 CNS) [µM]	GI50 (SR leukemia) [µM]	TGI (SR leukemia) [µM]	GI50 (K-562 leukemia) [µM]	TGI (K-562 leukemia) [µM]	GI50 (UACC-62 melanoma) [µM]	TGI (UACC-62 melanoma) [µM]	GI50 (UACC-257 melanoma) [µM]	TGI (UACC-257 melanoma) [µM]	GI50 (TK-10 renal) [µM]	TGI (TK-10 renal) [µM]	GI50 (SNB-19 CNS) [µM]	TGI (SNB-19 CNS) [µM]	GI50 (COLO 205 colon) [µM]	TGI (COLO 205 colon) [µM]	GI50 (SK-MEL-2 melanoma) [µM]	TGI (SK-MEL-2 melanoma) [µM]
Cc1ccc2cccc(OC(=O)Nc3cccc(C(F)(F)F)c3)c2n1	2.84	7.8	3.07	12.2	5.6	> 100	3.63	17.8	3.05	11.2	3.4	12.9	3.87	18.2	2.89	12.5	3.47	10.3	3.47	12.1
Oc1ccc2c3c1OC1c4[nH]ncc4C[C@H]4[C@@H](C2)N(CC2CC2)CC[C@]314 (stereo not given in full)		> 100		> 100		> 100		> 100		> 100		> 100		> 100		> 100		> 100		> 100
CC(C)(C)CC(C)(C)c1ccc(O)c(Cc2ccc(Cl)cc2Cl)c1	1.62	2.97	1.56	2.9	1.79	4.22	2.09	3.83	1.7	3.07	1.51	2.86	1.54	2.87	1.82	3.21	1.77	3.15	1.44	2.95
COC(=O)c1cc2oc(/C=C3/SC(=S)N(N)C3=O)cc2n1Cc1ccccc1	3.02	11.6	3.97	14	> 21.4	> 100	2.08	> 21.7	10.6	36.1	4.39	21.5	3.2	11.8	5.79	35.2	5.42	20.7	6.82	18.7
O=C(O)c1cc(=O)cc(C(=O)O)o1	> 100	> 100	> 100	> 100	> 100	> 100	> 100	> 100	> 100	> 100	> 100	> 100	> 100	> 100	> 100	> 100	> 100	> 100	> 100	> 100
OCC[N+]12CCCN1CCC2		> 100		> 100		> 100		> 100		> 100		> 100		> 100		> 100		> 100		> 100
Cn1cc(C2=C(c3cn(-c4ccccc4)c4ccccc34)C(=O)NC2=O)c2ccccc21	17.7	> 25	11.5	> 25	9.37	> 25	8.75	> 25	16.3	> 25	> 25	> 25	> 25	> 25	> 25	> 25	11.6	> 25	9.14	> 25
